Reference: ChEMBL document CHEMBL4339238, “Potent Anti-HIV Ingenane Diterpenoids from Euphorbia ebracteolata” (J Nat Prod, 2019)

Columns and labels:
[1] = Cytotoxicity against human MT4 cells measured after 3 days by CytoTox-Glo assay; assay type: cell-based
[2] = Selectivity index, ratio of CC50 for human MT4 cells to IC50 for HIV NL4-3 infected in human MT4 cells; assay type: toxicity, cell-based; settings: read-out: Ratio CC50/IC50
[3] = tested on: Human immunodeficiency virus 1; assay: Antiviral activity against HIV NL4-3 infected in human MT4 cells measured on day 3 post-infection by Nano-Glo luciferase assay; assay type: functional, organism-based; settings: Human immunodeficiency virus 1, NL4-3, MT4, 72 h

Row | SMILES | CC50 at 72 h [1] | selectivity ratio [2] | IC50 [3]
1 | CCCCCCCCCCCCCCCC(=O)O[C@@H]1C(CO)=C[C@@H]2C(=O)[C@]3(C=C(C)[C@H](O)[C@@]13O)[C@H](C)C[C@@H]1[C@H]2C1(C)C | > 1700 nM | > 385 | 4.4 nM
2 | CCCCCCCCCC(=O)OCC1=C[C@@H]2C(=O)[C@]3(C=C(C)[C@H](O)[C@@]3(O)[C@@H]1O)[C@H](C)C[C@@H]1[C@H]2C1(C)C | 48800 nM | 5980 | 8.2 nM
3 | CCCCCC/C=C\CCCCCCCC(=O)O[C@H]1C(C)=C[C@]23C(=O)[C@@H](C=C(CO)[C@@H](O)[C@@]12O)[C@H]1[C@@H](C[C@H]3C)C1(C)C | > 1700 nM | > 625 | 2.7 nM
4 | CCCCC/C=C/C=C/C(=O)O[C@H]1C(C)=C[C@]23C(=O)[C@@H](C=C(COC(C)=O)[C@@H](O)[C@]12O)[C@H]1[C@@H](C[C@H]3C)C1(C)C | > 900 nM | > 185 | 5 nM
5 | CCCC\C=C/C=C/C=C/C(=O)O[C@H]1C(C)=C[C@]23C(=O)[C@@H](C=C(COC(C)=O)[C@@H](O)[C@]12O)[C@H]1[C@@H](C[C@H]3C)C1(C)C | > 900 nM | > 111 | 8.4 nM
6 | CCCCCCCCCCCCCCCC(=O)O[C@H]1C(C)=C[C@]23C(=O)[C@@H](C=C(CO)[C@@H](O)[C@]12O)[C@H]1[C@@H](C[C@H]3C)C1(C)C | 26300 nM | 6420 | 4.1 nM
7 | CCCCCC/C=C/CCCCCCCC(=O)O[C@H]1C(C)=C[C@]23C(=O)[C@@H](C=C(CO)[C@@H](O)[C@@]12O)[C@H]1[C@@H](C[C@H]3C)C1(C)C | 13900 nM | 13100 | 1.1 nM
8 | CC1=C[C@]23C(=O)[C@@H](C=C(CO)[C@@H](O)[C@]2(O)[C@H]1O)[C@H]1[C@@H](C[C@H]3C)C1(C)C [INGENOL] | > 10000 nM |  | > 10 nM
9 | CCCCCCCCCCCCCCCC(=O)OCC1=C[C@@H]2C(=O)[C@]3(C=C(C)[C@H](O)[C@@]3(O)[C@@H]1O)[C@H](C)C[C@@H]1[C@H]2C1(C)C | > 1700 nM | > 1540 | 1.1 nM
10 | CCCCCCCCCCCCCC(=O)O[C@@H]1C(CO)=C[C@@H]2C(=O)[C@]3(C=C(C)[C@H](O)[C@@]13O)[C@H](C)C[C@@H]1[C@H]2C1(C)C | > 1800 nM | > 454 | 3.9 nM
11 | CCCCC/C=C/C=C/C(=O)O[C@@H]1C(COC(C)=O)=C[C@@H]2C(=O)[C@]3(C=C(C)[C@H](O)[C@@]13O)[C@H](C)C[C@@H]1[C@H]2C1(C)C | 15200 nM | 13000 | 1.2 nM
12 | Cc1cn([C@H]2C[C@H](N=[N+]=[N-])[C@@H](CO)O2)c(=O)[nH]c1=O [ZIDOVUDINE] | > 370 nM | > 20 | 18.7 nM
13 | CCCCC/C=C\C=C\C(=O)O[C@@H]1C(COC(C)=O)=C[C@@H]2C(=O)[C@]3(C=C(C)[C@H](O)[C@@]13O)[C@H](C)C[C@@H]1[C@H]2C1(C)C | 14300 nM | 20300 | 0.7 nM
14 | CCCCCCCCCCCCCC(=O)O[C@H]1C(C)=C[C@]23C(=O)[C@@H](C=C(CO)[C@@H](O)[C@]12O)[C@H]1[C@@H](C[C@H]3C)C1(C)C | 26300 nM | 11300 | 2.3 nM
15 | CCCC\C=C/C=C\C=C\C(=O)O[C@H]1C(C)=C[C@]23C(=O)[C@@H](C=C(COC(C)=O)[C@@H](O)[C@]12O)[C@H]1[C@@H](C[C@H]3C)C1(C)C | > 900 nM | > 96.2 | 9.7 nM
16 | CCCCC/C=C\C=C\C(=O)O[C@H]1C(C)=C[C@]23C(=O)[C@@H](C=C(COC(C)=O)[C@@H](O)[C@]12O)[C@H]1[C@@H](C[C@H]3C)C1(C)C | > 900 nM | > 526 | 1.8 nM
17 | CCCCCCCCCCCCCC(=O)OCC1=C[C@@H]2C(=O)[C@]3(C=C(C)[C@H](O)[C@@]3(O)[C@@H]1O)[C@H](C)C[C@@H]1[C@H]2C1(C)C | 32400 nM | 3770 | 8.6 nM
